ChEMBL document CHEMBL3227967, “Quantitative structure-activity relationships in 1-aryl-2-(alkylamino)ethanol antimalarials” (J Med Chem, 1979)

System: Plasmodium berghei
Assay: Antimalarial activity against Plasmodium berghei
Type: functional

Row | Structure (SMILES) | log(1/C)
1 | CCCCNc1cc(C(O)CC2CCCCN2)c2ccccc2n1 (centres undefined) | 2.41
2 | CCCCCN(CCCCC)CC(O)c1cc(-c2ccc(Cl)cc2)nc(-c2ccc(Cl)cc2)c1 (centres undefined) | 3.13
3 | CCCCN(CCCC)CC(O)c1cc(-c2ccc3c(c2)OCO3)nc2cc(Cl)ccc12 (centres undefined) | 3.09
4 | CCCCN(CCCC)CC(O)c1cc2cc(Cl)ccc2c2cc(Cl)ccc12 (centres undefined) | 3.81
5 | CCCCN(CCCC)CC(O)c1cc(-c2ccc(C(F)(F)F)cc2)nc2c(Cl)cc(Cl)cc12 (centres undefined) | 4.04
6 | CCCCCCCN(CCCCCCC)CC(O)c1cc2ccccc2c2ccc(Cl)cc12 (centres undefined) | 2.97
7 | OC(CC1CCCCN1)c1cc2ccc(Br)cc2c2cc(Br)ccc12 (centres undefined) | 3.31
8 | CCCCCN(CCCCC)CC(O)c1ccc(Br)c2ccccc12 (centres undefined) | 2.16
9 | CCCCN(CCCC)CC(O)c1cc2sccc2c2ccsc12 (centres undefined) | 2.1
10 | CCCCCCNCC(O)c1cc(-c2ccc(C(F)(F)F)cc2)nc(-c2ccc(C(F)(F)F)cc2)c1 (centres undefined) | 3.96
11 | CCCCN(CCCC)CC(O)c1c(F)c(-c2ccc(Cl)cc2)nc2c(Cl)cc(Cl)cc12 (centres undefined) | 4.22
12 | OC(CC1CCCCN1)c1cc2c(Cl)c(Cl)c(Cl)c(Cl)c2c2cc(C(F)(F)F)ccc12 (centres undefined) | 4.75
13 | CCCCN(CCCC)CC(O)c1cc(-c2ccc(Cl)cc2)nc2cc(I)ccc12 (centres undefined) | 3.43
14 | CCCCN(CCCC)CC(O)c1cc(C23CC4CC(CC(C4)C2)C3)nc2ccc(Cl)cc12 (centres undefined) | 3.05
15 | OC(CC1CCCCN1)c1cc(Oc2ccc(Cl)cc2)nc2c(Cl)cc(Cl)cc12 (centres undefined) | 4.16
16 | CCCCCCCN(CCCCCCC)CC(O)c1cccc2cc3c(Cl)cccc3cc12 (centres undefined) | 2.44
17 | CCCCCCN(CCCCCC)CC(O)c1cc(-c2ccc(Cl)cc2)nc2cc(OC)c(Cl)cc12 (centres undefined) | 2.8
18 | CCCCCCC[N+]([O-])(CCCCCCC)CC(O)c1cc2ccccc2c2cc(Br)ccc12 (centres undefined) | 3.43
19 | OC(CC1CCCCN1)c1cc2c(Cl)cc(Cl)cc2c2cc(C(F)(F)F)ccc12 (centres undefined) | 4.1
20 | OC(CC1CCCCN1)c1cc2ccc(C(F)(F)F)cc2c2cc(Cl)ccc12 (centres undefined) | 4.25
21 | Cc1ccc(-c2cc(C(O)CN3CCCCC3)c3cc(C)ccc3n2)cc1 (centres undefined) | 2.42
22 | CCCCN(CCCC)CC(O)c1cc2cc(Br)ccc2c2cc(Br)ccc12 (centres undefined) | 4.17
23 | CCCCN(CCCC)CC(O)c1cc(-c2ccc(Cl)cc2)nc2cc(Cl)ccc12 (centres undefined) | 3.91
24 | CCCCCCCN(CCCCCCC)CC(O)c1c(OC)c2cc(Cl)ccc2c2ccc(Cl)cc12 (centres undefined) | 3.34
25 | CCCCN(CCCC)CC(O)c1cc2ccsc2c2ccccc12 (centres undefined) | 2.38

Row | Structure (SMILES) | log(1/C)
26 | CCCCCCCN(CCCCCCC)CC(O)c1ccc2cc3ccccc3cc2c1 (centres undefined) | 2.62
27 | OC(CN1CCCCC1)c1cc(-c2ccccc2)nc2c(Cl)cc(Cl)cc12 (centres undefined) | 3.17
28 | CCCCN(CCCC)CCC(O)c1cc2ccccc2c2ccccc12 (centres undefined) | 2.45
29 | OC(CC1CCCCN1)c1cc(C(F)(F)F)nc2ccc(C(F)(F)F)cc12 (centres undefined) | 3.65
30 | CCCCN(CCCC)CC(O)c1cc(-c2ccc(Cl)cc2)nc(-c2ccc(Cl)cc2)c1 (centres undefined) | 3.84
31 | OC(CC1CCCCN1)c1cc(Oc2ccc(Cl)cc2)nc2ccc(Cl)cc12 (centres undefined) | 3.23
32 | CCCCN(CCCC)CC(O)c1cc2c(Cl)cc(Cl)cc2c2cc(Cl)ccc12 (centres undefined) | 3.72
33 | CCCCCCCN(CCCCCCC)CC(O)c1cc2ccc(Cl)cc2c2ccccc12 (centres undefined) | 2.44
34 | CCCCN(CCCC)CC(O)c1ccc(-c2ccc(Cl)cc2)c2c(Cl)cc(Cl)cc12 (centres undefined) | 3.33
35 | CCCCN(CCCC)CC(O)c1cc(Oc2cccc(C(F)(F)F)c2)cc2c(Cl)cc(Cl)cc12 (centres undefined) | 2.52
36 | OC(CC1CCCCN1)c1cc2cc(Cl)ccc2c2cc(Cl)ccc12 (centres undefined) | 4.12
37 | CCCCN(CCCC)CC(O)c1cc2sccc2c2cc(Cl)sc12 (centres undefined) | 3.36
38 | OC(CC1CCCCN1)c1cc2c(Br)cc(Br)cc2c2cc(C(F)(F)F)ccc12 (centres undefined) | 4.2
39 | OC(CN1CCCCC1)c1cc(-c2ccc(F)cc2)nc2cc(F)ccc12 (centres undefined) | 2.45
40 | CCCCCCCN(CCCCCCC)CC(O)c1cc2ccc(Cl)cc2c2cc(C(F)(F)F)ccc12 (centres undefined) | 3.61
41 | CCCCCCN(CCCCCC)CC(O)c1cc(-c2ccc(OC)cc2)nc2c(Cl)cc(OC)cc12 (centres undefined) | 3.15
42 | CCCCCCN(CCCCCC)CC(O)c1cc(-c2ccc(Cl)cc2)nc2c(Cl)cccc12 (centres undefined) | 3.32
43 | CCCCN(CCCC)CC(O)c1cc2cc(Br)cc(Br)c2c2ccccc12 (centres undefined) | 4.22
44 | CCN(CC)CC(O)c1cc(-c2ccc(C)cc2)nc2c(C)cc(C)cc12 (centres undefined) | 2.8
45 | OC(CC1CCCCN1)c1cc(-c2ccc(C(F)(F)F)cc2)nc(-c2ccc(C(F)(F)F)cc2)c1 (centres undefined) | 4.19
46 | Cc1c(Cl)ccc2c(C(O)CN(CCC(C)C)CCC(C)C)cc(-c3ccc(Cl)cc3)nc12 (centres undefined) | 3.09
47 | CCCCCCCN(CCCCCCC)CC(O)c1cc2cc(Cl)cc(Cl)c2nc1-c1ccc(Cl)cc1 (centres undefined) | 2.43
48 | CCCCCCCN(CCCCCCC)CC(O)c1cc2ccc(C(F)(F)F)cc2c2sccc12 (centres undefined) | 3.36
49 | Cc1cccc2c(C(O)CC3CCCCN3)cc(-c3ccc(F)cc3)nc12 (centres undefined) | 3.72
50 | OC(CNC1CCCCC1)c1cc2ccc(C(F)(F)F)cc2c2cc(C(F)(F)F)ccc12 (centres undefined) | 3.72

Row | Structure (SMILES) | log(1/C)
51 | CCN(CC)CCC(O)c1cc2ccc(C(F)(F)F)cc2c2cc(C(F)(F)F)ccc12 (centres undefined) | 4.12
52 | CN1CCN(CC(O)c2cc(-c3ccc(F)cc3)nc3cc(F)ccc23)CC1 (centres undefined) | 2.27
53 | CCCCN(CCCC)CC(O)c1cc(-c2ccc(I)cc2)nc2c(Cl)cc(Cl)cc12 (centres undefined) | 4.5
54 | CCCCN(CCCC)CC(O)c1cc2ccccc2c2cc(F)ccc12 (centres undefined) | 2.58
55 | CCCCN(CCCC)CC(O)c1cc2cnccc2c2c(Cl)cc(Cl)cc12 (centres undefined) | 2.42
56 | CCCCCCCN(CCCCCCC)CC(O)c1cc2c(Br)cccc2c2cc(Br)ccc12 (centres undefined) | 3.33
57 | CCCCN(CCCC)CC(O)c1cc2c(Br)cc(Br)cc2c2cc(Br)ccc12 (centres undefined) | 4.19
58 | NC(=O)c1cc(C(O)CC2CCCCN2)c2cccc(C(F)(F)F)c2n1 (centres undefined) | 2.42
59 | CCCCCCCN(CCCCCCC)CC(O)c1cccc2c1cc(Cl)c1ccccc12 (centres undefined) | 2.5
60 | CCCCCCCN(CCCCCCC)CC(O)c1cc2sccc2c2cc(Cl)sc12 (centres undefined) | 2.64
61 | CCCCN(CCCC)CC(O)c1cc2c(Cl)c(Cl)ccc2c2cc(C(F)(F)F)ccc12 (centres undefined) | 3.55
62 | CCCCN(CCCC)CC(O)c1cc(-c2ccc(Cl)cc2)nc(-c2ccc(Cl)c(Cl)c2)c1 (centres undefined) | 3
63 | Cc1ccc2nc(C(F)(F)F)cc(C(O)CC3CCCCN3)c2c1 (centres undefined) | 2.84
64 | CCCN(CCC)CC(O)c1cc2cc(Br)cc(Br)c2c2cc(C(F)(F)F)ccc12 (centres undefined) | 4.24
65 | CCCCN(CCCC)CC(O)c1cc2cc(Br)ccc2c2cc(C(F)(F)F)ccc12 (centres undefined) | 4.07
66 | CC(C)CCCN(CCC(C)C)CC(O)c1cc(-c2ccc(C(F)(F)F)cc2)nc(C(F)(F)F)c1 (centres undefined) | 3.04
67 | CCCCN(CCCC)CC(O)c1cc(-c2ccc(Cl)cc2)cc2ccccc12 (centres undefined) | 3.87
68 | CCCCCCCN(CCCCCCC)CC(O)c1cc(-c2ccc(Cl)cc2)cc2ccc(OC)cc12 (centres undefined) | 4.18
69 | CCCCN(CCCC)CC(O)c1cc2ccc(Cl)c(Cl)c2c2cc(C(F)(F)F)ccc12 (centres undefined) | 3.98
70 | CCCCCCCCN(CCCCCCCC)CC(O)c1cc(-c2ccccc2)nc2cc(Cl)ccc12 (centres undefined) | 2.82
71 | OC(CNCc1ccccc1)c1cc(-c2ccc(Cl)c(Cl)c2)nc2c(Cl)cc(Cl)cc12 (centres undefined) | 3.66
72 | CCCCN(CCCC)CC(O)c1cc(-c2ccc(Cl)cc2)nc(-c2ccc(OC)cc2)c1 (centres undefined) | 2.84
73 | CCCCCCCCNCC(O)c1cc(-c2ccc(C(F)(F)F)cc2)nc(-c2ccc(C(F)(F)F)cc2)c1 (centres undefined) | 3.76
74 | OC(CC1CCCCN1)c1cc(C(F)(F)F)nc2ccc(Cl)cc12 (centres undefined) | 2.53
75 | CCCCCCCN(CCCCCCC)CC(O)c1cc2cc(Cl)ccc2c2cc(C(F)(F)F)ccc12 (centres undefined) | 3.68

Row | Structure (SMILES) | log(1/C)
76 | CCCCN(CCCC)CC(O)c1cc(C(F)(F)c2ccccc2)nc2c(Cl)cc(Cl)cc12 (centres undefined) | 2.61
77 | CCC(CC)NCC(O)c1cc(-c2ccc(C(F)(F)F)cc2)nc(C(F)(F)F)c1 (centres undefined) | 3.28
78 | CCCCCCCN(CCCCCCC)CC(O)c1cc(-c2ccc(Cl)c(Cl)c2)cc2cc(Cl)c(OC)cc12 (centres undefined) | 2.58
79 | CC(C)(C)NCC(O)c1cc2ccc(Br)cc2c2cc(Br)ccc12 (centres undefined) | 3.61
80 | CCCCCCCN(CCCCCCC)CC(O)c1cc2ccc(I)cc2c2cc(C(F)(F)F)ccc12 (centres undefined) | 3.55
81 | CC1CCCNC1CC(O)c1cc(-c2ccccc2)nc2cc(Cl)ccc12 (centres undefined) | 3.52
82 | CCCCN(CCCC)CC(O)c1c(Cl)c(-c2ccc(Cl)cc2)nc2c(Cl)cc(Cl)cc12 (centres undefined) | 3.87
83 | OC(CC1CCCCN1)c1cc2cc3c(cc2c2cc(Cl)ccc12)OCO3 (centres undefined) | 3.14
84 | Cc1cc(C)c2nc(C(F)(F)F)cc(C(O)CC3CCCCN3)c2c1 (centres undefined) | 2.93
85 | CCCCCCCN(CCCCCCC)CC(O)c1cccc2ccc3ccccc3c12 (centres undefined) | 2.19
86 | CCCCN(CCCC)CC(O)c1cc(-c2ccc(C(F)(F)F)cc2)nc(C(F)(F)F)c1 (centres undefined) | 4.13
87 | OC(CC1CCCCN1)c1cc2cc(C(F)(F)F)cc(C(F)(F)F)c2c2ccc(Cl)cc12 (centres undefined) | 4.82
88 | CCCCN(CCCC)CC(O)c1cccc2ccc3ccccc3c12 (centres undefined) | 2.09
89 | CCCNCC(O)c1cc(C(F)(F)F)nc2c(C(F)(F)F)cccc12 (centres undefined) | 2.92
90 | CCCCN(CCCC)CC(O)C1CC(c2ccc(Cl)c(Cl)c2)=Nc2c(Cl)cc(Cl)cc21 (centres undefined) | 3.6
91 | CCNC(C)(C)CC(O)c1cc(C(F)(F)F)nc2c(C(F)(F)F)cccc12 (centres undefined) | 2.54
92 | CCCCN(CCCC)CC(O)c1cccc2cc3cc(Cl)c(Cl)cc3cc12 (centres undefined) | 2.48
93 | Cc1cc(C)cc(-c2cc(C(O)CC3CCCCN3)c3ccccc3n2)c1 (centres undefined) | 2.24
94 | OC(CC1CCCCN1)c1ccnc2c(C(F)(F)F)cccc12 (centres undefined) | 2.75
95 | CCCCN(CCCC)CC(O)c1cc2c(Cl)c(Cl)ccc2c2cc(Cl)c(Cl)cc12 (centres undefined) | 3.34
96 | CCN(CC)CC(O)c1cc(-c2cccs2)nc2cccc(Br)c12 (centres undefined) | 2.38
97 | CCCCN(C)CC(O)c1cc(-c2ccc(Cl)cc2)nc(-c2ccc(Cl)cc2)c1 (centres undefined) | 3.59
98 | CCCCN(CCCC)CC(O)c1cc2cc(Cl)ccc2c2ccccc12 (centres undefined) | 3.01
99 | CCCCN(CCCC)CC(O)c1cc(C23CC4CC(CC(C4)C2)C3)nc2c(C(F)(F)F)cccc12 (centres undefined) | 3.59
